Measured values: patent US20060040957A1, “BICYCLIC PYRIMIDINE MATRIX METALLOPROTEINASE INHIBITORS” (priority 2001, published 2006)
pIC50: −log10 of the molar value. Where a name gives a salt, the structure may show the parent alone. Read-outs that look alike come from different tables or passages of the source.

Experiments:
[1] = molecular target: T1, MMP-7FL (full length matrilysin) (Homo sapiens, UniProt P09237); experiment: Thiopeptolide substrate hydrolysis assay, MMP-7FL; format: biochemical; conditions: HEPES pH 7.0, 22° C., read-out: IC50 (μM) Versus Certain MMPs: MMP-07 FL
T1 sequence (P09237 95-267): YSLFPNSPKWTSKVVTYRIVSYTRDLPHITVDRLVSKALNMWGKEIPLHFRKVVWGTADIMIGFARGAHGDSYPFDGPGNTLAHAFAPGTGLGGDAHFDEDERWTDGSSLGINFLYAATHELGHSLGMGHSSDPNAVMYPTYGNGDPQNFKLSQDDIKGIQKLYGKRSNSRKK
From the text: (§1) The invention compounds of Formula I have been evaluated in standard assays for their ability to inhibit the catalytic activity of various MMP enzymes.
(§2) Thiopeptolide substrates show virtually no decomposition or hydrolysis at or below neutral pH in the absence of a matrix metalloproteinase enzyme.
(§3) Several representative compounds have been evaluated for their ability to inhibit various matrix metalloproteinase enzymes.

[2] = molecular target: MMP-14CD (catalytic domain of MMP-14) (Homo sapiens, UniProt P50281); experiment: Thiopeptolide substrate hydrolysis assay, MMP-14CD; format: biochemical; conditions: HEPES pH 7.0, 22° C., read-out: IC50 (μM) Versus Certain MMPs: MMP-14 CD
From the text: as §1, §2, §3

[3] = molecular target: T2, MMP-2FL (full length Gelatinase A) (Homo sapiens, UniProt P08253); experiment: Thiopeptolide substrate hydrolysis assay, MMP-2FL; format: biochemical; conditions: HEPES pH 7.0, 22° C., read-out: IC50 (μM) Versus Certain MMPs: MMP-02 FL
T2 sequence (P08253 110-660): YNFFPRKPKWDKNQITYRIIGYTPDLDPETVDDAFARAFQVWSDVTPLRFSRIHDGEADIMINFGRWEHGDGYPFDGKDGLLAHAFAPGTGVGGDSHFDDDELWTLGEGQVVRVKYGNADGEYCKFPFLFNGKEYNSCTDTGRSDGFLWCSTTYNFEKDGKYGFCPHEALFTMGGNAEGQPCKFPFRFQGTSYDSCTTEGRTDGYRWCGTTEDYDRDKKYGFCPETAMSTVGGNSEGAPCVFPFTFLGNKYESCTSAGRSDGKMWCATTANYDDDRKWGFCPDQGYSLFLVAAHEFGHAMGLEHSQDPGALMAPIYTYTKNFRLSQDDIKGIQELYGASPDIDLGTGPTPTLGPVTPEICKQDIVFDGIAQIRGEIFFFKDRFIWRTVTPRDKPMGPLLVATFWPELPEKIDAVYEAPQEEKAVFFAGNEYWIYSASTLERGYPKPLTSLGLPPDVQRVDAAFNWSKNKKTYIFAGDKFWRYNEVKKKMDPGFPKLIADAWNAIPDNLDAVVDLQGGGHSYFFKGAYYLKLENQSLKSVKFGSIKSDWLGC
From the text: as §1, §2, §3

[4] = molecular target: MMP-9FL (full length Gelatinase B) (Homo sapiens, UniProt P14780); experiment: Thiopeptolide substrate hydrolysis assay, MMP-9FL; format: biochemical; conditions: HEPES pH 7.0, 22° C., read-out: IC50 (μM) Versus Certain MMPs: MMP-09 FL
From the text: as §1, §2, §3

[5] = molecular target: MMP-13CD (catalytic domain of collagenase 3) (Homo sapiens, UniProt P45452); experiment: Thiopeptolide substrate hydrolysis assay, MMP-13CD; format: biochemical; conditions: for IC50: thiopeptolide substrate, HEPES pH 7.0, 22° C., read-out: IC50 (μM) Versus Certain MMPs: MMP-13 CD; for pIC50: running text after Table 1
From the text: as §2

Sequence of MMP-9FL (full length Gelatinase B) (P14780 94-707, species assumed): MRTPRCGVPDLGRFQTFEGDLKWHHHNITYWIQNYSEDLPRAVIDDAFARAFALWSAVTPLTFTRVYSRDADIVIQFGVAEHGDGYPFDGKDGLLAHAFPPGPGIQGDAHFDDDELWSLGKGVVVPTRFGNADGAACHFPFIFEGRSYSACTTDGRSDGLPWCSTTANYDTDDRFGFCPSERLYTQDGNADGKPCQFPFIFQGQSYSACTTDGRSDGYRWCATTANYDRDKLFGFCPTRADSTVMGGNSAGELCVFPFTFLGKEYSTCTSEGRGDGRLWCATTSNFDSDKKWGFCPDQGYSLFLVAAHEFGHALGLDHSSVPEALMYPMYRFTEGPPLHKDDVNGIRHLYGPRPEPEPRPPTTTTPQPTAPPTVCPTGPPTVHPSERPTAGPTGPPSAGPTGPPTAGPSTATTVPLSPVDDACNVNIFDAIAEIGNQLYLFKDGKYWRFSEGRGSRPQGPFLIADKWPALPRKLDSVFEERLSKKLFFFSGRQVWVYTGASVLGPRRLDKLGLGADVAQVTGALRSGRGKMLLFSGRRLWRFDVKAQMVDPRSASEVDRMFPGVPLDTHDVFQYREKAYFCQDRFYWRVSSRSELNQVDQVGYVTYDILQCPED

O=C(NCc1ccccc1)c1cn2c(=O)n(Cc3ccncc3)c(=O)cc2s1 (as salt: hydrochloride) (hydrate or solvate) [Example 15, 6-(4-Pyridylmethyl)-5,7-dioxo-6,7-dihydro-5H-thiazolo[3,2-c]pyrimidine-2-carboxylic acid benzylamide hydrochloride]
melting point: > 210 °C

O=C(NCc1ccccc1)c1cn2c(=O)n(C(=O)c3ccccc3)c(=O)cc2s1 [Example 11, 6-Benzoyl-5,7-dioxo-6,7-dihydro-5H-thiazolo[3,2-c]pyrimidine-2-carboxylic acid benzylamide]
IC50 [1]: > 30 µM | melting point: 204 to 207 °C (dec.) | IC50 [2]: > 30 µM | IC50 [3]: > 30 µM | IC50 [4]: > 30 µM

O=C(NCc1ccccc1)c1cn2c(=O)n(Cc3ccc(Cl)cc3)c(=O)cc2s1 [Example 13, 6-(4-Chlorobenzyl)-5,7-dioxo-6,7-dihydro-5H-thiazolo[3,2-c]pyrimidine-2-carboxylic acid benzylamide]
IC50 [1]: > 100 µM | melting point: > 220 °C | IC50 [2]: > 100 µM | IC50 [3]: > 100 µM | IC50 [4]: > 100 µM

O=C(NCc1ccc(Cl)c(Cl)c1)c1cn2c(=O)n(Cc3ccc(Cl)cc3)c(=O)cc2s1 [Example 14, 6-(4-Chlorobenzyl)-5,7-dioxo-6,7-dihydro-5H-thiazolo[3,2-c]pyrimidine-2-carboxylic acid 3,4-dichlorobenzylamide]
IC50 [1]: 25 µM | melting point: 218 to 219 °C | IC50 [2]: > 100 µM | IC50 [3]: > 30 µM | IC50 [4]: > 30 µM

Cc1c(=O)n(Cc2ccccc2)c(=O)n2cc(C(=O)NCc3ccccc3)sc12 [Example 16, 6-Benzyl-8-methyl-5,7-dioxo-6,7-dihydro-5H-thiazolo[3,2-c]pyrimidine-2-carboxylic acid benzylamide]
IC50 [1]: > 30 µM | melting point: 176 to 178 °C | IC50 [2]: > 30 µM | IC50 [3]: > 100 µM | IC50 [4]: > 100 µM

COc1ccc(CNC(=O)c2cn3c(=O)n(Cc4ccccc4)c(=O)c(C)c3s2)cc1 [Example 17, 6-Benzyl-8-methyl-5,7-dioxo-6,7-dihydro-5H-thiazolo[3,2-c]pyrimidine-2-carboxylic acid 4-methoxybenzylamide]
IC50 [1]: > 30 µM | melting point: 160 to 162 °C | IC50 [2]: > 30 µM | IC50 [3]: > 30 µM | IC50 [4]: > 30 µM

Cc1c(=O)n(Cc2ccccc2)c(=O)n2cc(C(=O)NCc3ccc(Cl)c(Cl)c3)sc12 [Example 18, 6-Benzyl-8-methyl-5,7-dioxo-6,7-dihydro-5H-thiazolo[3,2-c]pyrimidine-2-carboxylic acid 3,4-dichlorobenzylamide]
IC50 [1]: > 30 µM | melting point: 180 to 182 °C | IC50 [2]: > 30 µM | IC50 [3]: > 30 µM | IC50 [4]: > 30 µM

Cc1c(=O)[nH]c(=O)n2cc(C(=O)O)sc12 [Example 54, 8-Methyl-5,7-dioxo-6,7-dihydro-5H-thiazolo[3,2-c]pyrimidine-2-carboxylic acid]
melting point: > 205 °C

COc1ccc(CNC(=O)c2cn3c(=O)n(Cc4ccc(C(=O)O)cc4)c(=O)c(C)c3s2)cc1 [Example 55, 4-[2-(4-Methoxy-benzylcarbamoyl)-8-methyl-5,7-dioxo-7H-thiazolo[3,2-c]pyrimidin-6-ylmethyl]-benzoic acid]
melting point: > 210 °C

Cc1c(=O)n(Cc2ccc(C(=O)O)cc2)c(=O)n2cc(C(=O)NCc3ccc(F)cc3)sc12 [Example 58, 4-[2-(4-Fluoro-benzylcarbamoyl)-8-methyl-5,7-dioxo-7H-thiazolo[3,2-c]pyrimidin-6-ylmethyl]-benzoic acid]
IC50 [5]: 0.00222 µM | IC50 [1]: > 100 µM | IC50 [2]: > 100 µM | IC50 [3]: > 100 µM | IC50 [4]: > 100 µM

COC(=O)c1ccc(Cn2c(=O)c(C)c3sc(C(=O)NCc4ccc(F)cc4)cn3c2=O)cc1Cl [Example 65, 2-Chloro-4-[2-(4-fluoro-benzylcarbamoyl)-8-methyl-5,7-dioxo-7H-thiazolo[3,2-c]pyrimidin-6-ylmethyl]-benzoic acid methyl ester]
IC50 [1]: 26 µM | melting point: 176 to 178 °C | IC50 [2]: > 30 µM | IC50 [3]: > 30 µM | IC50 [4]: > 30 µM

COC(=O)c1ccc(Cn2c(=O)c(C)c3sc(C(=O)NCc4ccc(F)cc4)cn3c2=O)cc1C [Example 68, 4-[2-(4-Fluoro-benzylcarbamoyl)-8-methyl-5,7-dioxo-7H-thiazolo[3,2-c]pyrimidin-6-ylmethyl]-2-methyl-benzoic acid methyl ester]
IC50 [1]: > 100 µM | melting point: 179 to 180 °C | IC50 [2]: > 100 µM | IC50 [3]: > 100 µM | IC50 [4]: > 100 µM

Cc1c(=O)n(Cc2ccc(C#N)cc2)c(=O)n2cc(C(=O)NCc3ccncc3)sc12 [Example 85, 6-(4-Cyano-benzyl)-8-methyl-5,7-dioxo-6,7-dihydro-5H-thiazolo[3,2-c]pyrimidine-2-carboxylic acid(pyridin-4-ylmethyl)-amide hydrochloride]
IC50 [5]: 0.0547 µM | IC50 [1]: > 30 µM | IC50 [2]: > 30 µM | IC50 [3]: > 30 µM | IC50 [4]: > 30 µM

CCC(CC)n1c(=O)c(C)c2sc(C(=O)NCc3ccc(F)cc3)cn2c1=O [Example 94, 6-(1-Ethyl-propyl)-8-methyl-5,7-dioxo-6,7-dihydro-5H-thiazolo[3,2-c]pyrimidine-2-carboxylic acid 4-fluoro-benzylamide]
IC50 [5]: > 30 µM

Cc1c(=O)n(CCS(=O)(=O)c2ccccc2)c(=O)n2cc(C(=O)NCc3ccc(F)cc3)sc12 [Example 96, 6-(2-Benzenesulfonyl-ethyl)-8-methyl-5,7-dioxo-6,7-dihydro-5H-thiazolo[3,2-c]pyrimidine-2-carboxylic acid 4-fluoro-benzylamide]
IC50 [5]: 1.2 µM

Cc1c(=O)n(CCNC(=O)c2ccccc2)c(=O)n2cc(C(=O)NCc3ccc(F)cc3)sc12 [Example 100, 6-(2-Benzoylamino-ethyl)-8-methyl-5,7-dioxo-6,7-dihydro-5H-thiazolo[3,2-c]pyrimidine-2-carboxylic acid 4-fluoro-benzylamide]
IC50 [5]: 10 µM

COc1ccc(CNC(=O)c2cn3c(=O)n(Cc4ccc(Cl)c(Cl)c4)c(=O)cc3s2)cc1 [Example 102, 6-(3,4-Dichloro-benzyl)-5,7-dioxo-6,7-dihydro-5H-thiazolo[3,2-c]pyrimidine-2-carboxylic acid 4-methoxy-benzylamide]
melting point: 206 to 207 °C

Cc1c(=O)n(Cc2ccc(C(=O)OC(C)(C)C)cc2)c(=O)n2ccsc12 [Example 104, 4-(8-Methyl-5,7-dioxo-7H-thiazolo[3,2-c]pyrimidin-6-ylmethyl)-benzoic acid tert-butyl ester]
melting point: 163 to 165 °C

Cc1c(=O)n(Cc2ccc(S(=O)(=O)N3CCOCC3)cc2)c(=O)n2ccsc12 [Example 108, 8-Methyl-6-[4-(morpholine-4-sulfonyl)-benzyl]-thiazolo[3,2-c]pyrimidine-5,7-dione]
IC50 [5]: > 100 µM

Cc1c(=O)n(Cc2ccccc2)c(=O)n2cc(C(=O)NCC3CCCO3)sc12 (centres unmarked) [Example 110, 6-Benzyl-8-methyl-5,7-dioxo-6,7-dihydro-5H-thiazolo[3,2-c]pyrimidine-2-carboxylic acid(tetrahydro-furan-2-ylmethyl)-amide]
IC50 [5]: 54 µM

COC(=O)Nc1cc(Cn2c(=O)c(C)c3sc(C(=O)NCc4ccc(F)cc4)cn3c2=O)on1 [Example 111, {5-[2-(4-Fluoro-benzylcarbamoyl)-8-methyl-5,7-dioxo-7H-thiazolo[3,2-c]pyrimidine-6-ylmethyl]-isoxazol-3-yl}-carbamic acid methyl ester]
pIC50 ([5]; read-out: IC50 inhibition of MMP-13CD): 6.77

COc1cc(CNC(=O)c2cn3c(=O)n(Cc4ccc(F)c(F)c4)c(=O)c(C)c3s2)ccn1 [Example 114, 6-(3,4-Fluoro-benzyl)-8-methyl-5,7-dioxo-6,7-dihydro-5H-thiazolo[3,2-c]pyrimidine-2-carboxylic acid(2-methoxy-pyridin-4-ylmethyl)-amide hydrochloride]
pIC50 ([5]; IC50 inhibition of MMP-13CD): 7.81
